Legend:
[1] = tested on: uterine horns and endometriotic lesions; assay: H&E histopathology of uterine horns and lesions from treated mice; assay type: in vivo, C57BL/6 mice
Procedure: A randomly selected subset of the collected lesions and uterine horns were processed for staining with hematoxylin and eosin (H&E) (pathologically confirmed endometriotic lesions from PBS and HCQ-treated mice, n=15 each; uterine horns derived from PBS-treated mice, n=10; and uterine horns derived from HCQ-treated mice, n=10).
Five-week-old C57BL/6 female mice were purchased from Jackson laboratories. All animals were maintained under standard 12 h photoperiod; food and water were available ad libitum throughout the study. All experimental procedures and animal care were approved by the Animal Care and Use Committee (IACUC) of the University of South Florida (R IS00000101), in accordance with the principles described in the Guide for the Care and Use of Laboratory Animals of the National Institutes of Health. All surgical procedures were performed under aseptic conditions using anesthesia. The mouse model of endometriosis was performed as previously described. […] Lesions were measured using a caliper. Volume of the lesions was calculated according to the formula: 4/3πr^2R.
Collected samples were immediately preserved in 10% neutral buffered formalin at the animal facility. […] Lesions were analyzed from independent blocks. […]

[2] = tested on: G-CSF, eotaxin, and IP-10; assay: Peritoneal fluid cytokine/chemokine magnetic bead panel; assay type: in vivo, mouse
Procedure: After animals were euthanized, 1 ml of sterile PBS was injected into the peritoneal cavity, the abdominal area was gently massaged, and the fluid collected. The collected fluid was centrifuged at 1,390 rpm for 5 min at 4° C. and the resulting supernatant was then stored at −80° C. Levels of chemokines and cytokines were analyzed using a MCYTOMAG-70K-PX32 (Millipore, Billerica, Mass.) following manufacturer's instructions. Briefly, 200 μl of wash buffer was added to each well and incubated for 10 min at room temperature in a plate shaker. After incubation, the wash buffer was decanted and the plate was inverted and tapped on absorbent towel several times. Then, 25 μl of assay buffer was added to each well followed by 25 μl of concentration standards, assay controls, or samples. The premixed bottle was vortexed and 25 μl of the beads were added to each well. The plate was incubated overnight at 4° C., protected from light. Then the plate was incubated for 1 min on the hand-held magnet and the well content was gently decanted and tapped on absorbent pads. Each well was washed twice using 200 μl of wash buffer, followed by the incubation on the hand-held magnet. Antibody detection solution was allowed to warm to room temperature, and then 25 μl was added to each well and incubated for 1 h at room temperature on a plate shaker, protected from light. Next, 25 μl of Streptavidin-Phycoerythrin was added to each well containing the detection antibodies and incubated for 30 min at room temperature protected from light on a plate shaker. After the incubation, the plate was washed twice as previously described and 150 μl of Sheath Fluid was added to each well. The plate was analyzed using MAGPIX™ instrument and xPONENT software solutions, version 4.2.

[3] = tested on: LC3B-II; assay: Western blot for LC3B, T-HESC cells, HCQ; assay type: cell-based, human; settings: 25 μM HCQ, 18 hours
[4] = HCQ-treated vs PBS-treated mice

For `CCN(CCO)CCCC(C)Nc1ccnc2cc(Cl)ccc12` (stereo not drawn) [HCQ, hydroxychloroquine], the “uterine horns with irregular epithelium pattern” value ([1]; uterine horns from HCQ-treated mice, 60 mg/kg) was 5 out of 10, the “histology of ectopic growths (glandular components)” value ([1]; vs PBS, p=0.03 Fisher's exact test) was “did not histologically resemble endometriotic lesions” and the “IP-10 in peritoneal fluid” value ([2]; HCQ-treated (n=5) vs PBS-treated mice, p=0.0079) was “significantly increased”. The “G-CSF in peritoneal fluid” value [2, 4] was “remained unchanged”, the “eotaxin in peritoneal fluid” value [2, 4] was “remained unchanged” and the “LC3B-II protein in T-HESC cells” value [3] was “increase”.
